Assay results from PMC12747936, “Rhamnose alleviates the proinflammatory response during endotoxemia via the CEACAM1/LGALS9-p38 axis” (Acta Biochimica et Biophysica Sinica, 2025).

Key:
CEACAM1 (THP-1-dMs) = target: T1, CEACAM1 (THP-1-dMs) (Homo sapiens, UniProt P13688); experiment: CETSA and DARTS, western blot; type: biochemical; settings: THP-1-dM lysate; CETSA 100 μM rhamnose, 2 h, 37-67°C; DARTS with pronase 1:1000, TNC buffer pH 8.0
T1 construct: endogenous protein in lysate of PMA-differentiated THP-1 macrophages
T1 sequence (P13688 35-526): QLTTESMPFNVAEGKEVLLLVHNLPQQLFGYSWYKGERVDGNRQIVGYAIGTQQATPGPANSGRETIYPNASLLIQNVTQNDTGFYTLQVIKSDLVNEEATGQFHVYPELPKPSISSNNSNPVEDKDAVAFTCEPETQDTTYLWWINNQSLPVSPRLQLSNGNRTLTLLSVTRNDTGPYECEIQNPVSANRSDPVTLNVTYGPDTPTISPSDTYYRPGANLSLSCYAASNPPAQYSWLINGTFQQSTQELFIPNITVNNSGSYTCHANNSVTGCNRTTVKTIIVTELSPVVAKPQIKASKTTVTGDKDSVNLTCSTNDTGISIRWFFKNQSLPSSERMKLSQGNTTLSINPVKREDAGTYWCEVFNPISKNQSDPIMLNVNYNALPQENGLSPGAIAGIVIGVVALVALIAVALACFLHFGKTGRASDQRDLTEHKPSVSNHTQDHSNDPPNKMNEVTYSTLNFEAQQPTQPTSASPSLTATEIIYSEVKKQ

CEACAM1 (BMDMs) = target: T2, CEACAM1 (BMDMs) (Mus musculus, UniProt P31809); experiment: CETSA and DARTS, western blot; type: biochemical; settings: BMDM lysate; CETSA 100 μM rhamnose, 2 h, 37-67°C; DARTS with pronase 1:1000, TNC buffer pH 8.0
T2 construct: endogenous protein in lysate of murine bone marrow-derived macrophages; band 150-250 kDa region discussed
T2 sequence (P31809 35-521): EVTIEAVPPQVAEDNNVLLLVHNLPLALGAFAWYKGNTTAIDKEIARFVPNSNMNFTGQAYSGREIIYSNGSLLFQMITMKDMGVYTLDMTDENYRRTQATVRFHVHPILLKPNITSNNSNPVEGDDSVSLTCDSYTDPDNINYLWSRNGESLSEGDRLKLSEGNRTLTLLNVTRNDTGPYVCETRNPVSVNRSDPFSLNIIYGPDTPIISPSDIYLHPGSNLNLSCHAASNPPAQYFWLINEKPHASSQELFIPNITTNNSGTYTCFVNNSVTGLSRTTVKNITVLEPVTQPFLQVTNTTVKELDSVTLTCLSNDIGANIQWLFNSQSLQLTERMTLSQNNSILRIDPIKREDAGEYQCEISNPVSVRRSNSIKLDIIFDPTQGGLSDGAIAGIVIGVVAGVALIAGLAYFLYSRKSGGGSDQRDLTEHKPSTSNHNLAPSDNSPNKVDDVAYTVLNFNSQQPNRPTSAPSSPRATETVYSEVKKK

C[C@@H]1OC(O)[C@H](O)[C@H](O)[C@H]1O (some centres unmarked) [rhamnose]
CETSA and DARTS, western blot (CEACAM1 (THP-1-dMs)): rhamnose treatment increased the resistance of the CEACAM1 protein to protease hydrolysis | CETSA and DARTS, western blot (CEACAM1 (BMDMs)): CETSA also demonstrated that rhamnose reduced the degradation rate of CEACAM1 in heat-denatured BMDMs
